Results reported in paper PMC9234961 (Journal of Medicinal Chemistry, 2022).
Like-named read-outs stand apart in the source and are kept apart here.

Columns and labels:
kinases (468) [1] = target: kinases (468) (Homo sapiens, UniProt O60674); conditions: JAK2(JH1domain-catalytic); 1000 nM
kinases (468) [2] = target: kinases (468) (Homo sapiens, UniProt O75116); conditions: kinase ROCK2 (Entrez ROCK2); compound concentration 1000 nM
kinases (468) [3] = target: kinases (468) (Homo sapiens, UniProt O75460); conditions: ERN1; 1000 nM
kinases (468) [4] = target: kinases (468) (Homo sapiens, UniProt O75582); conditions: compound concentration 1000 nM
kinases (468) [5] = target: kinases (468) (Homo sapiens, UniProt O75747); conditions: PIK3C2G; 1000 nM
kinases (468) [6] = target: kinases (468) (Homo sapiens, UniProt P00533); conditions: EGFR; 1000 nM
kinases (468) [7] = target: kinases (468) (Homo sapiens, UniProt P04626); conditions: ERBB2; 1000 nM
kinases (468) [8] = target: kinases (468) (Homo sapiens, UniProt P07949, V804M); conditions: kinase RET(V804M) (Entrez RET); compound concentration 1000 nM
kinases (468) [9] = target: kinases (468) (Homo sapiens, UniProt P22607); conditions: FGFR3; 1000 nM
kinases (468) [10] = target: kinases (468) (Homo sapiens, UniProt P35916); conditions: FLT4; 1000 nM
kinases (468) [11] = target: kinases (468) (Homo sapiens, UniProt P41240); conditions: CSK; 1000 nM
kinases (468) [12] = target: kinases (468) (Homo sapiens, UniProt P42681); conditions: kinase TXK (Entrez TXK); compound concentration 1000 nM
kinases (468) [13] = target: kinases (468) (Homo sapiens, UniProt P45985); conditions: MEK4 (MAP2K4); 1000 nM
kinases (468) [14] = target: kinases (468) (Homo sapiens, UniProt Q02156); conditions: PRKCE; 1000 nM
kinases (468) [15] = target: kinases (468) (Homo sapiens, UniProt Q02779); conditions: MLK2 (MAP3K10); 1000 nM
kinases (468) [16] = target: kinases (468) (Homo sapiens, UniProt Q07912); conditions: kinase TNK2 (Entrez TNK2); compound concentration 1000 nM
kinases (468) [17] = target: kinases (468) (Homo sapiens, UniProt Q12852); conditions: DLK (MAP3K12); 1000 nM
kinases (468) [18] = target: kinases (468) (Homo sapiens, UniProt Q12866); conditions: MERTK; 1000 nM
kinases (468) [19] = target: kinases (468) (Homo sapiens, UniProt Q13470); conditions: kinase TNK1 (Entrez TNK1); compound concentration 1000 nM
kinases (468) [20] = target: kinases (468) (Homo sapiens, UniProt Q13557); conditions: CAMK2D; 1000 nM
kinases (468) [21] = target: kinases (468) (Homo sapiens, UniProt Q15375); conditions: EPHA7; 1000 nM
kinases (468) [22] = target: kinases (468) (Homo sapiens, UniProt Q15569); conditions: kinase TESK1 (Entrez TESK1); compound concentration 1000 nM
kinases (468) [23] = target: kinases (468) (Homo sapiens, UniProt Q16288); conditions: kinase TRKC (Entrez NTRK3); compound concentration 1000 nM
kinases (468) [24] = target: kinases (468) (Homo sapiens, UniProt Q52WX2); conditions: kinase SBK1 (Entrez SBK1); compound concentration 1000 nM
kinases (468) [25] = target: kinases (468) (Homo sapiens, UniProt Q7L7X3); conditions: kinase TAOK1 (Entrez TAOK1); compound concentration 1000 nM
kinases (468) [26] = target: kinases (468) (Homo sapiens, UniProt Q86UE8); conditions: kinase TLK2 (Entrez TLK2); compound concentration 1000 nM
kinases (468) [27] = target: kinases (468) (Homo sapiens, UniProt Q86YV6); conditions: MYLK4; 1000 nM
kinases (468) [28] = target: kinases (468) (Homo sapiens, UniProt Q8TD19); conditions: NEK9; 1000 nM
kinases (468) [29] = target: kinases (468) (Homo sapiens, UniProt Q9BYT3); conditions: kinase STK33 (Entrez STK33); compound concentration 1000 nM
kinases (468) [30] = target: kinases (468) (Homo sapiens, UniProt Q9H2K8); conditions: kinase TAOK3 (Entrez TAOK3); compound concentration 1000 nM
kinases (468) [31] = target: kinases (468) (Homo sapiens, UniProt Q9HBH9); conditions: MKNK2; 1000 nM
kinases (468) [32] = target: kinases (468) (Homo sapiens, UniProt Q9UQM7); conditions: CAMK2A; 1000 nM
kinases (468) [33] = target: kinases (468) (Homo sapiens, UniProt Q9Y2H9); conditions: MAST1; 1000 nM
kinases (468) [34] = target: kinases (468) (Homo sapiens, UniProt Q9Y2K2); conditions: QSK (KIAA0999); 1000 nM

Chain of kinases (468) (Homo sapiens, UniProt O75582) (O75582 whole entry): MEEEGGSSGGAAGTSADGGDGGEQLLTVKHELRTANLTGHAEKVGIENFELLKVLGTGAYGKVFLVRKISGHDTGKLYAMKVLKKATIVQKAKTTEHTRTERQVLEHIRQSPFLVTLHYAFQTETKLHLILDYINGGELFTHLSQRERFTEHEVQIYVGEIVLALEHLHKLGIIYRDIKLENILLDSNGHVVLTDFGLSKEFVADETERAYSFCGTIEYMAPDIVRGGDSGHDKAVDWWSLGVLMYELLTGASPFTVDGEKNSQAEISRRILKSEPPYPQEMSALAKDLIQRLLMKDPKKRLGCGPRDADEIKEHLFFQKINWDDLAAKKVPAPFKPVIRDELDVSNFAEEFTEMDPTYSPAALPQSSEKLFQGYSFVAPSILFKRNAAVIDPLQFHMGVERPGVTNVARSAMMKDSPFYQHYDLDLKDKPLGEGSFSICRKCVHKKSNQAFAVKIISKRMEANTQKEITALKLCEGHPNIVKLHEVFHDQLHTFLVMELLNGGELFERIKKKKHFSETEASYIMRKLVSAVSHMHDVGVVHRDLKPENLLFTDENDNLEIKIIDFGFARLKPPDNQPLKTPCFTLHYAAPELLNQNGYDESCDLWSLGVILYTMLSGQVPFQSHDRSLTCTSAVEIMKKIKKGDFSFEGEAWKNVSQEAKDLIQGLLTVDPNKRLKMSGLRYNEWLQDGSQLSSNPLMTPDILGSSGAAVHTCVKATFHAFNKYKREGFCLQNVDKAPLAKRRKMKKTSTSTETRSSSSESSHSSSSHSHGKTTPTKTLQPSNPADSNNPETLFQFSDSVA
Chain of kinases (468) (Homo sapiens, UniProt Q9BYT3) (Q9BYT3 whole entry): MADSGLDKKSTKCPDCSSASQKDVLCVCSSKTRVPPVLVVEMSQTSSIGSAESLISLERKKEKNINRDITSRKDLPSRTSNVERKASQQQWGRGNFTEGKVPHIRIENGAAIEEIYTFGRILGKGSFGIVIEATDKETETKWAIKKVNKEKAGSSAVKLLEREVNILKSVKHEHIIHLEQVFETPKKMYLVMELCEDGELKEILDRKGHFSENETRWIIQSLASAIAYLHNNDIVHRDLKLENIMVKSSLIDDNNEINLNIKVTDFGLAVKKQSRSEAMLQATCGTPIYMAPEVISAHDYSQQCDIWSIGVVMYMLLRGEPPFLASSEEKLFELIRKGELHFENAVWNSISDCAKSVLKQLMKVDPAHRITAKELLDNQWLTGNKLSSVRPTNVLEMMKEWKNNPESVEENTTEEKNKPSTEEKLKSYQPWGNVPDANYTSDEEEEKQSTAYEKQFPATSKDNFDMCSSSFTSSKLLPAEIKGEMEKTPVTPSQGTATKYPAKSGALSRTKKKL
Chain of kinases (468) (Homo sapiens, UniProt Q9Y2H9) (Q9Y2H9 whole entry): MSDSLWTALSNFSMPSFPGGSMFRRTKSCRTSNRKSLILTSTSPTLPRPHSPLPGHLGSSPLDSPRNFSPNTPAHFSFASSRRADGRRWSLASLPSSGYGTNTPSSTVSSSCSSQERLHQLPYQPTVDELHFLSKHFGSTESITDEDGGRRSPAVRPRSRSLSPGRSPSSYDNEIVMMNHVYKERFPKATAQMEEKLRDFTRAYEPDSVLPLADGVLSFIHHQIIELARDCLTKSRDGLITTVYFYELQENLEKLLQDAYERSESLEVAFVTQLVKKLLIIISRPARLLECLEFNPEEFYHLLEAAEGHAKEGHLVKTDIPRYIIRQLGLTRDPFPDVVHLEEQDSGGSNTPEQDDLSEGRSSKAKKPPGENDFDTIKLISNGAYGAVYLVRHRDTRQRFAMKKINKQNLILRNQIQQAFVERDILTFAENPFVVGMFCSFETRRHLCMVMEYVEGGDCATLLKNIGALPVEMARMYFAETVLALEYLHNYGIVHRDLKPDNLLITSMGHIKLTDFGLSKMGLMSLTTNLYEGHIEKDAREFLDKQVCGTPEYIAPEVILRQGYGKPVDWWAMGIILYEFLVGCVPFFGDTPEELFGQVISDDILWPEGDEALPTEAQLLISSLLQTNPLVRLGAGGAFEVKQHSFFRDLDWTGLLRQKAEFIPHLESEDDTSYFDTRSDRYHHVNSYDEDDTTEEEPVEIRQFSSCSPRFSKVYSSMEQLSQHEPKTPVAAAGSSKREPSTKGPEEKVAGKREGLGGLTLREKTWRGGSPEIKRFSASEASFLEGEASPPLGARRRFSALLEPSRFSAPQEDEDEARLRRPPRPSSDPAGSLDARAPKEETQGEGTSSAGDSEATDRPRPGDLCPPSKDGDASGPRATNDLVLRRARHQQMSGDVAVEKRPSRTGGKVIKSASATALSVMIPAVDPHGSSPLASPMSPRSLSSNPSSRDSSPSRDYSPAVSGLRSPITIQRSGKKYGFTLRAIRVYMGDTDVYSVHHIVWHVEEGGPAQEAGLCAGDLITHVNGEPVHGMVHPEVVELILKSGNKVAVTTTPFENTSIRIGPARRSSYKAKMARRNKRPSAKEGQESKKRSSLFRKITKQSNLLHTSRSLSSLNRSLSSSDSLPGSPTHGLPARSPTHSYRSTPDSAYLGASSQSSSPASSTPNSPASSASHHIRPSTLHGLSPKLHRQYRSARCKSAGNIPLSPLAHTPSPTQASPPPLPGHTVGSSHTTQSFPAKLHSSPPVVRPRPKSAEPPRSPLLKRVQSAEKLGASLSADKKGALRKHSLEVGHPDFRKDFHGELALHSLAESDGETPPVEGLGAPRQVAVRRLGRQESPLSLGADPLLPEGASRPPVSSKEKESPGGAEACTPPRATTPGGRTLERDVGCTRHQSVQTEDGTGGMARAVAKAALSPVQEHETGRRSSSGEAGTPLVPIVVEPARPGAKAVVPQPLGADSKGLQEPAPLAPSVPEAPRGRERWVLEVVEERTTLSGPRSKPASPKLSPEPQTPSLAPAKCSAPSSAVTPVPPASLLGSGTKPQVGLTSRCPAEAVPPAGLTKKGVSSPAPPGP
Chain of kinases (468) (Homo sapiens, UniProt Q9HBH9) (Q9HBH9 whole entry): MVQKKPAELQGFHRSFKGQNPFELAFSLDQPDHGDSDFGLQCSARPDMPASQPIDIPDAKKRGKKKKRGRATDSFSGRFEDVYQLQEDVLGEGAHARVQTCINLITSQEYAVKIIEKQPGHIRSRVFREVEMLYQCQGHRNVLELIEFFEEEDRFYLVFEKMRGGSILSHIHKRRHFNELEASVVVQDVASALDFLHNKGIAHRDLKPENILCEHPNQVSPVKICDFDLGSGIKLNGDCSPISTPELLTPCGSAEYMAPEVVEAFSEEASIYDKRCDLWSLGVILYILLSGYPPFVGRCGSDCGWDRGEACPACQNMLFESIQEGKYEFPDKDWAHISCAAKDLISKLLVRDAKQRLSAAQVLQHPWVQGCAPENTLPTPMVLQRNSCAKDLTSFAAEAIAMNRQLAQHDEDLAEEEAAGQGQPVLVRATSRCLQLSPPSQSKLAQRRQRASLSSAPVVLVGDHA
Chain of kinases (468) (Homo sapiens, UniProt Q02156) (Q02156 whole entry): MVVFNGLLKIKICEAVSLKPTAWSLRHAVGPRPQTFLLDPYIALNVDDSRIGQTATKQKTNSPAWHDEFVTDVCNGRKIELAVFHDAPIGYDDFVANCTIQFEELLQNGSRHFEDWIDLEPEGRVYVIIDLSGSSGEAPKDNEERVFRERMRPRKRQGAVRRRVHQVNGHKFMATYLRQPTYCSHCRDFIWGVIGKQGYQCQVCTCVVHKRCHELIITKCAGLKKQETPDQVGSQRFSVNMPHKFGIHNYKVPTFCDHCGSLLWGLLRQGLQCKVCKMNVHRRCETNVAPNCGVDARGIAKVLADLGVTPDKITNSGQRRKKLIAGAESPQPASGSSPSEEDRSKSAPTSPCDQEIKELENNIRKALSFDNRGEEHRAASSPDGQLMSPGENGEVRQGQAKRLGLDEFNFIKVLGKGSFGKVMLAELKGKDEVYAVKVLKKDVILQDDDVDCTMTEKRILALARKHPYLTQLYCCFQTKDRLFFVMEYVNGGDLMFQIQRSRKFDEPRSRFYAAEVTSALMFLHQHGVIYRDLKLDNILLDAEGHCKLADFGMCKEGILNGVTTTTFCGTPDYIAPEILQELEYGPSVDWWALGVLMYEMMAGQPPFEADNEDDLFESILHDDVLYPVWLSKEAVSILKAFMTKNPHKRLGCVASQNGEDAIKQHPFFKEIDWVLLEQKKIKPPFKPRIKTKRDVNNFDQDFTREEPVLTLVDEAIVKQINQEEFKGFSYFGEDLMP
Chain of kinases (468) (Homo sapiens, UniProt Q9UQM7) (Q9UQM7 whole entry): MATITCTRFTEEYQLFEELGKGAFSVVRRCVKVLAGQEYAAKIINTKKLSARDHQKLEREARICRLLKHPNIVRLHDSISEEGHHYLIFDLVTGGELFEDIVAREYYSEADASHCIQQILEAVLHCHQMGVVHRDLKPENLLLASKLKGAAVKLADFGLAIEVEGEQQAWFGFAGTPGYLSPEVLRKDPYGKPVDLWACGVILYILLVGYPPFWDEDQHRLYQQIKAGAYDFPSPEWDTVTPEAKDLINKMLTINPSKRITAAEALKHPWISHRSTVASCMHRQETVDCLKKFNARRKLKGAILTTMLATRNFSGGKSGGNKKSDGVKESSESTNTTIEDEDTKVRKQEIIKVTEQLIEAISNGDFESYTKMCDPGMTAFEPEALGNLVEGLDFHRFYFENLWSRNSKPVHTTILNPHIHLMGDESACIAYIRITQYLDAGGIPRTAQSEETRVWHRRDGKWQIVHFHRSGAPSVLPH
Chain of kinases (468) (Homo sapiens, UniProt P45985) (P45985 whole entry): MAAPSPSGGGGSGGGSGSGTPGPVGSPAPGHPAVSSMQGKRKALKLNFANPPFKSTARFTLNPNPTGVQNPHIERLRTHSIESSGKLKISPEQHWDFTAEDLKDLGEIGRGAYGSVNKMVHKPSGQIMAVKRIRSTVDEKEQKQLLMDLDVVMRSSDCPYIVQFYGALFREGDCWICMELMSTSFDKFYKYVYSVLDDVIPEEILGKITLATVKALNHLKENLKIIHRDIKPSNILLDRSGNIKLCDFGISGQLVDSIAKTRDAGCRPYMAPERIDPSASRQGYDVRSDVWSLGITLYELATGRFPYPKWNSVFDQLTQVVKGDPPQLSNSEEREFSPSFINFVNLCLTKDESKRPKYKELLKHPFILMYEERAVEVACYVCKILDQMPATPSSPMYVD

What does the source list for `C[C@H]1C[C@@H](O)CN(c2ncc(Cl)c(Nc3ccc4c(c3)c3c(c(=O)n4C)OCC(F)(F)[C@H](C4CC4)N3)n2)C1` [CCT373566_9A]?
Percent Control (kinases (468) [1]): 97%; Percent Control (kinases (468) [2]): 94%; Percent Control (kinases (468) [3]): 92%; Percent Control (kinases (468) [4]; kinase RPS6KA5(Kin.Dom.1-N-terminal) (Entrez RPS6KA5)): 93%; Percent Control (kinases (468) [4]; kinase RPS6KA5(Kin.Dom.2-C-terminal) (Entrez RPS6KA5)): 96%; Percent Control (kinases (468) [5]): 86%; Percent Control (kinases (468) [6]): 100%; Percent Control (kinases (468) [7]): 94%; Percent Control (kinases (468) [8]): 97%; Percent Control (kinases (468) [9]): 100%; Percent Control (kinases (468) [10]): 100%; Percent Control (kinases (468) [11]): 86%; Percent Control (kinases (468) [12]): 99%; Percent Control (kinases (468) [13]): 90%; Percent Control (kinases (468) [14]): 98%; Percent Control (kinases (468) [15]): 100%; Percent Control (kinases (468) [16]): 93%; Percent Control (kinases (468) [17]): 96%; Percent Control (kinases (468) [18]): 96%; Percent Control (kinases (468) [19]): 92%; Percent Control (kinases (468) [20]): 88%; Percent Control (kinases (468) [21]): 100%; Percent Control (kinases (468) [22]): 100%; Percent Control (kinases (468) [23]): 100%; Percent Control (kinases (468) [24]): 99%; Percent Control (kinases (468) [25]): 99%; Percent Control (kinases (468) [26]): 100%; Percent Control (kinases (468) [27]): 100%; Percent Control (kinases (468) [28]): 95%; Percent Control (kinases (468) [29]): 100%; Percent Control (kinases (468) [30]): 91%; Percent Control (kinases (468) [31]): 100%; Percent Control (kinases (468) [32]): 79%; Percent Control (kinases (468) [33]): 100%; Percent Control (kinases (468) [34]): 90%
